# Assay results: patent publication US8927534B2, “Compounds for the inhibition of integrins and use thereof” (Shire Orphan Therapies GmbH, priority 2006, dated 2015)
# How the values were obtained:
# [1] = target: Integrin alphaIIbbeta3 (Homo sapiens (Human), UniProt P05106+P08514); assay: alphaIIbbeta3-Fibrinogen binding assay (competitive ELISA); details: inhibition of integrin binding to coated fibrinogen; read-out: IC50 alphabIIbbeta3
# Experimental: (§1) The optimal concentrations of integrin and ligand were selected from ELISA binding studies with variable concentrations of both to obtain optimal signal noise ratio for further studies. IC50 studies were performed with fixed concentration of ligand and integrin and a serial dilution of inhibitor. The plates were measured with SpectraMax Plus reader (Molecular Devices). The resulting inhibition curves were analyzed using SoftMaxPro 4.0 software, the turning point describes the IC50 value.
# (§2) Fibronectin was purchased from Sigma and fibrinogen from Calbiochem. (EMD Biosciences, Darmstadt, Germany). The integrin alpha5beta1 extracellular domain Fc-fusion was expressed and purified as described (Coe, 2001, J. Biol. Chem., 276, 35854). Integrin alphaIIbbeta3 was purchased form Kordia (Kordia Life Science, Leiden, Netherlands)
# Fibrinogen was diluted with coating buffer (15 mM Na2CO3, 35 mM NaHCO3, pH 9.6) and coated with 100 μL/well to Nunc-Immuno maxisorp plates over night at 4° C. After discarding the coating solution plates were washed 3 times with buffer 1 (25 mM Tris, pH 7.6, 150 mM NaCl, 1 mM MnCl2, 1 mg/ml BSA) and blocked with 100 μL blocking buffer (3% BSA in PBS 0.1% Tween20) for 1 hour at room temperature. After washing the blocked plates (3 times) with buffer 1, integrin alphaIIbbeta3 (50 μL) and either inhibitor (serial dilution in buffer 3, 25 mM Tris, pH 7.6, 150 mM NaCl, 1 mM MnCl2, 1 mg/ml BSA 1 mM MgCl2, 1 mM CaCl2,) or buffer 3 (50 μL) were added to the wells and incubated for one hour at RT. Plates were then washed (3 times) with buffer 3 and incubated with 100 μL of anti-alphaIIbbeta3 antibody (anti CD41b, Pharmingen) in buffer 3 for 1 hour at RT. Plates were washed (3 times) with buffer 3 and incubated for 1 hour with 100 μL secondary antibody (anti-mouse-HRP conjugate, Sigma) in buffer 3. After additional washing steps (3 times) with buffer 350 μL of HRP substrate solution TMB (Seramun) were added to the wells. Color development was stopped after 3-5 minutes with 50 μL 1 M H2SO4. The developed color was measured at 450 nm and analyzed as described above.
# [2] = target: integrin alpha5beta1 extracellular domain Fc-fusion (Homo sapiens (Human), UniProt P05556+P08648); assay: alpha5beta1-Fibronectin binding assay (competitive ELISA); details: inhibition of integrin binding to coated fibronectin
# Experimental: as §1, §2
# Fibronectin was diluted with coating buffer (15 mM Na2CO3, 35 mM NaHCO3, pH 9.6) and coated with 100 μL/well to Nunc-Immuno maxisorp plates (Nalge Nunc Europe Ltd) over night at 4° C. After discarding the coating solution plates were washed 3 times with buffer 1 (25 mM Tris, pH 7.6, 150 mM NaCl, 1 mM MnCl2, 1 mg/ml BSA) and blocked with 100 μL blocking buffer (3% BSA in PBS 0.1% Tween20) for 1 hour at room temperature. After washing the blocked plates (3 times) with buffer 1, integrin (50 μL) and either inhibitor (serial dilution in buffer 1) or buffer 1 (50 μL) were added to the wells and incubated for one hour at RT. Plates were then washed (3 times) with buffer 1 and incubated with 100 μL of anti-human-Fc-HRP antibody conjugate (Sigma-Aldrich, Taufkirchen, Germany) in buffer 1 for 1 hour at RT. After additional washing steps (3 times) with buffer 150 μL of HRP substrate solution TMB (Seramun, Germany) were added to the wells. Color development was stopped after 3-5 minutes with 50 μL 1 M H2SO4. The developed color was measured at 450 nm and analyzed as described above.
# [3] = tested on: HUVEC; assay: Migration assay with HUVEC; type: cell-based; details: Homo sapiens, transwell coated with chymotryptic fibronectin fragment, 10 ng/ml bFGF chemoattractant, 3 h
# Experimental: Migration assays are carried out using modified Boyden chambers consisting of Fluoroblock Transwell membrane filter (8 μm pores) in 24 well companion tissue plates (BD). Three wells per group are used.
# The underfaces of the transwell membranes are coated with chymotryptic fibronectin fragment (10 μg/ml; Chemicon) and blocked with 2% BSA for 1 h at room temperature. After rinsing with PBS transwells are placed into companion plates containing 700 μl serumfree medium with indicated compound concentrations and chemoattractant (10 ng/ml bFGF; Promocell).
# HUVEC are maintained in standard culture medium (Endothelial Cell Growth Medium; Promocell, containing supplement mix and 2% FCS) in a humified 5% CO2 incubator at 37° C. Cells are grown to 70-90% confluency and are made quiescent in culture medium containing 0.5% FCS, 0.1% BSA, no supplements for 16 h. Medium is removed and serum-free medium (0% FCS; 0.1% BSA, no supplements) is added for 1.5 h. Cells are detached with trypsin and cell suspension is adjusted to 1×10^5/ml. Indicated compound concentrations are added to cells. Cells are preincubated with compounds for 15 min, before seeding of 250 μl of the cell suspensions into the transwells. Cells are allowed to migrate for 3 h in 37° C. incubator with 5% CO2. Then, transwells are transferred to 24 well companion tissue plates containing Calcein AM (4 μM; Molecular Probes) in HBSS and incubated for another 2 h. Plates are read at excitation/emission […] in a fluorescence reader.
# Results are expressed as percent of control (cells in serumfree medium without compound and chemoattractant.
# [4] = target: alpha5beta1 (Homo sapiens (Human), UniProt P05556+P08648); assay: Cell adhesion assay with HEK293; type: cell-based; details: HEK293 cells, fibronectin-coated plates, 1 h at 37° C., 2 mM MgCl2
# Experimental: Cryopreservated cells were thawed and grown for 72 h in DMEM medium with 10% FCS, 2 mM glutamine, 100 U/ml penicillin and 100 μg/ml streptomycin before use.
# Cells were detached with cell dissociation solution (Sigma) and suspended in growth medium, centrifuged and resuspended in buffer A (150 mM NaCl, 25 mM HEPES, 2 mM EDTA, pH 7.4). Cells were incubated for 30 min at 37° C. in a 5% CO2. Subsequently, cells were washed with pre-warmed buffer B (150 mM NaCl, 25 mM HEPES pH 7.4) and resuspended in buffer B. 96-well Maxisorp-plate were coated with 0.01% poly-L-lysine, 10 μg/ml fibronectin (Chemicon; #F1904) in carbonate buffer or carbonate buffer alone (15 mM Na2CO3, 35 mM NaHCO3, pH 9.6) for 1 h at RT. Plates were washed and blocked with 1% BSA for 30 min at RT. Cells were preincubated with test compound and adjusted DMSO concentrations for 10 min at RT. 7×10^4 cells per well were plated in triplicate and allowed to attach for 1 h at 37° C. in the presence of 2 mM MgCl2. Cells were washed with PBS and adherent cells were fixed with 5% glutaraldehyde for 30 min.
# Cells were subsequently washed and stained with 0.1% Crystal Violet for 1 hr at 37° C. Plates were washed and incorporated dye was solubilized with 10% acetic acid. Absorbance was measured at 570 nm using a Spectramax Plus 384 microtiter plate reader and analyzed with SoftMaxPro (Molecular Devices). Minimal binding on BSA was subtracted. IC50 values were determined using XL-FIT.
IC50 [1],IC50 [2],IC50 [4],Compound,IC50 [3]
> 1 µM,< 0.1 µM,< 2 µM,"Cc1ccnc(NCC2CCN(c3ccc(CC(NC(=O)c4c(C)cc(C)cc4C)C(=O)O)cc3)CC2)c1 (centres unmarked) [Compound 8, 3-(4-(4-((4-methylpyridin-2-ylamino)methyl)piperidin-1-yl)phenyl)-2-(2,4,6-trimethylbenzamido)propanoic acid]",< 10 µM
> 1 µM,> 0.1 µM,> 20 µM,"Cc1cc(C)c(C(=O)NC(Cc2ccc(N3CC(CNc4ccccn4)C3)cc2)C(=O)O)c(C)c1 (centres unmarked) [Compound 11, 3-(4-(3-((pyridin-2-ylamino)methyl)azetidin-1-yl)phenyl)-2-(2,4,6-trimethylbenzamido)propanoic acid]",
> 1 µM,> 0.1 µM,2 to 20 µM,"Cc1cc(C)c(C(=O)NC(Cc2ccc(N3CCC(CNc4nc5ccccc5[nH]4)CC3)cc2)C(=O)O)c(C)c1 (centres unmarked) [Compound 20, 3-(4-(4-((1H-benzo[d]imidazol-2-ylamino)methyl)piperidin-1-yl)phenyl)-2-(2,4,6-trimethylbenzamido)propanoic acid]",
> 1 µM,< 0.1 µM,< 2 µM,"Cc1cc(C)c(C(=O)NC(Cc2ccc(N3CCC(c4ccc5c(n4)NCCC5)CC3)cc2)C(=O)O)c(C)c1 (centres unmarked) [Compound 23, 3-(4-(4-(5,6,7,8-tetrahydro-1,8-naphthyridin-2-yl)piperidin-1-yl)phenyl)-2-(2,4,6-trimethylbenzamido)propanoic acid]",< 10 µM
> 1 µM,< 0.1 µM,2 to 20 µM,"CC1(C(=O)NC(CC2CCN(C(=O)CCc3ccc4c(n3)NCCC4)CC2)C(=O)O)CCCCC1 (centres unmarked) [Compound 29, 2-(1-methylcyclohexanecarboxamido)-3-(1-(3-(5,6,7,8-tetrahydro-1,8-naphthyridin-2-yl)propanoyl)piperidin-4-yl)propanoic acid]",> 20 µM
> 1 µM,< 0.1 µM,< 2 µM,"Cc1ccnc(NCC2CCN(c3ccc(CC(NC(=O)C4(C)CCCCC4)C(=O)O)cc3)CC2)c1 (centres unmarked) [Compound 75, 2-(1-methylcyclohexanecarboxamido)-3-(4-(4-((4-methylpyridin-2-ylamino)methyl)piperidin-1-yl)phenyl)propanoic acid]",
,< 0.1 µM,< 2 µM,"Cc1ccnc(NCC2CC(=O)N(c3ccc(CC(NC(=O)c4c(C)cc(C)cc4C)C(=O)O)cc3)C2)c1 (centres unmarked) [Compound 114, 3-(4-(4-((4-methylpyridin-2-ylamino)methyl)-2-oxopyrrolidin-1-yl)phenyl)-2-(2,4,6-trimethylbenzamido)propanoic acid]",< 10 µM
> 1 µM,< 0.1 µM,< 2 µM,"CCc1cc(F)cc(C)c1C(=O)NC(Cc1ccc(N2CCC(CNc3ccccn3)CC2)cc1)C(=O)O (centres unmarked) [Compound 120, 2-(2-ethyl-4-fluoro-6-methylbenzamido)-3-(4-(4-((pyridin-2-ylamino)methyl)piperidin-1-yl)phenyl)propanoic acid]",< 10 µM
,< 0.1 µM,< 2 µM,"COc1ccnc(NCC2CCN(c3ccc(CC(NC(=O)c4c(C)cc(C)cc4C)C(=O)O)cc3)CC2)c1 (centres unmarked) [Compound 147, 3-(4-(4-((4-methoxypyridin-2-ylamino)methyl)piperidin-1-yl)phenyl)-2-(2,4,6-trimethylbenzamido)propanoic acid]",
,< 0.1 µM,2 to 20 µM,"Cc1ccnc(NCC2CCN(c3ccc(CC(NC(=O)c4ccccc4)C(=O)O)cc3)CC2)c1 (centres unmarked) [Compound 262, 2-benzoylamino-3-(4-{4-[(4-methyl-pyridin-2-ylamino)methyl]piperidin-1-yl}phenyl)propionic acid]",
> 1 µM,< 0.1 µM,< 2 µM,"Cc1ccnc(NCC2CCN(c3ccc(CC(NC(=O)C(c4ccccc4)C(C)C)C(=O)O)cc3)CC2)c1 (centres unmarked) [Compound 266, 2-(3-methyl-2-phenyl-butyrylamino)-3-(4-{4-[(4-methyl-pyridin-2-ylamino)methyl]piperidin-1-yl}phenyl)propionic acid]",
> 1 µM,< 0.1 µM,> 20 µM,"CCCNC(=O)NCC1CCN(c2ccc(CC(NC(=O)c3c(C)cc(C)cc3C)C(=O)O)cc2)CC1 (centres unmarked) [Compound 269, 3-(4-{4-[(3-propyl-ureido)methyl]piperidin-1-yl}phenyl)-2-(2,4,6-trimethyl-benzoylamino)propionic acid]",
